The text below walks through data of patent US20060148860A1, “Substituted p-phenyl carbamates” (Novo Nordisk A/S, priority 2003, published 2006).

The test has as its target T1, hormone sensitive lipase (HSL) (Homo sapiens, UniProt Q05469).
T1 sequence (Q05469 1-1076): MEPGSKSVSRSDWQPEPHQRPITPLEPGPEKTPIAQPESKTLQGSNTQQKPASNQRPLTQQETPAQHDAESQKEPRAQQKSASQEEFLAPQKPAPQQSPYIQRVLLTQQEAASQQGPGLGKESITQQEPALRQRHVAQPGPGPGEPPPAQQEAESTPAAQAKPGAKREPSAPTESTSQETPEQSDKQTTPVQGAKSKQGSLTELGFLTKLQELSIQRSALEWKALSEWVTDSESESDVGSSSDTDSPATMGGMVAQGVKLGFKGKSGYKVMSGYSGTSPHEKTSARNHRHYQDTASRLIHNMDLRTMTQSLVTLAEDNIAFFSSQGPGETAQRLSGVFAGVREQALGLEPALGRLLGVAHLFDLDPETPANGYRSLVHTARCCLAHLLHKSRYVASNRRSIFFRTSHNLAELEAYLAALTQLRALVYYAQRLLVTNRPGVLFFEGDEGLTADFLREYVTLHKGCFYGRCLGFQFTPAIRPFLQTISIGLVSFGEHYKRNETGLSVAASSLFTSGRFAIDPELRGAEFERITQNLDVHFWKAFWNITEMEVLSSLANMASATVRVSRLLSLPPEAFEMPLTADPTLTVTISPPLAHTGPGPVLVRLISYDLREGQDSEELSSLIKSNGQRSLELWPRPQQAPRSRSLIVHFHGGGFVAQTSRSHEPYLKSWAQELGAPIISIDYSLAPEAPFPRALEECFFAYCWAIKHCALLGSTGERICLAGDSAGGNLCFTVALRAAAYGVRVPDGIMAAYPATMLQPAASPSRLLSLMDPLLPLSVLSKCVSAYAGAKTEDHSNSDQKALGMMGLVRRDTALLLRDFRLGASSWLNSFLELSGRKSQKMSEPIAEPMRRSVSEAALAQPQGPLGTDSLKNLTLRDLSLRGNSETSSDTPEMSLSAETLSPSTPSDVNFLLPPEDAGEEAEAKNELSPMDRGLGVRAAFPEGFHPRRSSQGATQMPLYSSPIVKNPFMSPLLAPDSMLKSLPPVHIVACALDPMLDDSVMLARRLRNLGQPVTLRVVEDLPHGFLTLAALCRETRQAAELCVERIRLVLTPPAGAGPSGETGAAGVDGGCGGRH
The test is described as follows: 3190.1: percent inhibition of hormone sensitive lipase at 10 μM (fluorochrome-labeled triacylglyceride emulsion, HSL_FL). Format: biochemical. As to conditions: 10 μM sample concentration; % activity relative to non-inhibited sample (no compound); 30 min pre-incubation at 25° C., 120 min at 37° C. The source says: Materials. The Hormone-sensitive lipase was provided by Dr. Cecilia Holm, from Lund University Sweden or produced and purified by Novo Nordisk (NN) using the reagents and protocols used by Dr. Holm. The substrates used are: ^3H-labeled triolein (TO) from Amersham, Buckinghamshire, U.K. cat No. TRA191; 5-20 Ci/mmol dissolved in toluene, triolein (Sigma, Cat. No. T-1740), fluorochrome-labeled triacylglyceride (cis-octadec-9-enoic acid 2-[12-(7-nitrobenzo[1,2,5]oxadiazol-4-ylamino)dodecanoyloxy]-1-cis-octadec-9-enoyloxymethyl-ethyl ester) prepared by Novo Nordisk (NN) by conventional methods, and 1,3-(di[^3H]-stearin), 2-(PEG-Biotin)glycerol prepared in collaboration with Amersham Pharmacia Biotech, UK and described in WO 01/073442. Phosphatidyl choline (PC) and phosphatidyl inositol (PI) are from Sigma (St Luis Mo. cat. Nos. P-3556 and P-5954 respectively). All other reagents are of commercial grade and obtained from various commercial sources.
3190.1: Assay for determination of percent inhibition of hormone sensitive lipase by compound at 10 μM sample concentration.
A lipid emulsion with fluorochrome-labeled triacylglyceride and phospholipid is used as substrate with a standard concentration of highly purified HSL (12 μg/mL initial concentration corresponding to 600 ng/mL final concentration). BSA is added as product acceptor. The transfer of the fluorochrome from the lipid phase to the water (BSA) phase changes the fluorescent properties of the fluorochrome. The changes can be monitored on a fluorimeter with an excitation wavelength of 450 nm and an emission wavelength of 545 nm.
Compound and HSL (20 μL compound, 10 μL enzyme and 70 μL PED-BSA buffer) is pre-incubated for 30 min at 25° C. before addition of substrate (100 μL). Amount of formed product is measured after 120 min incubation at 37° C.
Results are given as percent activity relative to a non-inhibited sample (no compound).
Regarding `CN(C(=O)Oc1ccc(CSc2ncc[nH]2)cc1)c1ccccc1` [Example 2, Methyl-phenyl-carbamic acid 4-(1H-imidazol-2-ylsulfanylmethyl)-phenyl ester], the activity at 10 µM came out at 1%. As for `CN(C(=O)Oc1ccc(CCOc2ccncc2)cc1)c1ccccc1` [Example 1, Methyl-phenyl-carbamic acid 4-[2-(pyridin-4-yloxy)-ethyl]-phenyl ester], the activity at 10 µM came to 1%.

`CN(C(=O)Oc1ccc(CCSc2ncc[nH]2)cc1)c1ccccc1` [Example 3, Methyl-phenyl-carbamic acid 4-[2-(1H-imidazol-2-ylsulfanyl)-ethyl]-phenyl ester]: the activity at 10 µM came out at 1%.

Regarding `Cc1cccc(Cc2ccc(OC(=O)N(C)c3ccccc3)cc2)n1` [Example 4, Methyl-phenyl-carbamic acid 4-(6-methyl-pyridin-2-ylmethyl)-phenyl ester], the activity at 10 µM is 5%.
